One data set addresses PDE4D (Homo sapiens, UniProt Q08499). Nature of the data set: Inhibitory action on PDE4 (homogenate of BHK cells expressing cloned human PDE4D, [3H]-cAMP hydrolysis). Type of data set: biochemical. Particulars: average in triplicate measurements; 1 μM [3H]-cAMP substrate; read-out: PDE4 Inhibition IC50. On the procedure:
Inhibitory Action on PDE4: PDE4D was cloned from human placental mRNA by PCR techniques, and cDNA after an alternative spliced site (Mol. Cell. Biol., 13, 6558, 1993) was expressed in BHK cells. Two clones of BHK cells expressing PDE4 activity which was 100 or more times as high as endogenous PDE4 activity were obtained, and one of the clones was cultured in a large amount, and its homogenate was used as an enzyme source of PDE4.
50 mM Tris-HCl (pH 8.0), 0.1 mM EGTA, 0.1 mM MgCl2, 1 μM [^3H]-cGMP (100,000 dpm/tube) or 1 μM [^3H]-cAMP (100,000 dpm/tube) was added to the above homogenate, and 0.2 ml of the mixture was incubated at 30° C. for 10 to 20 minutes in the presence or absence of a test compound. The enzyme reaction was stopped by incubating the mixture at 95° C. for 1.5 minutes, and after cooling on ice, 50 μl nucleotidase (10 units/ml) was added thereto and incubated at 30° C. for 10 minutes. 550 μl of AG1-X2 resin slurry (H2O:resin=2:1) was added to the reaction mixture, then left at 4° C. for 10 minutes and centrifuged (10,000 rpm, 2.5 minutes, 4° C.), and 450 μl of the supernatant was measured for radioactivity.
The activity was compared in terms of IC50 (concentration of the compound at which 50% of the enzyme activity is inhibited) IC50 was determined by plotting of the concentration of cAMP as the substrate and the concentration of the compound on logarithmic graph paper. The results shown in Table 1 are the average in triplicate measurements. The test compound was first dissolved in DMSO and then diluted with the above-mentioned buffer for use.

This passage reports IC50 and melting point results from US6352989B1, “Nitrogenous heterocyclic derivatives and medicine thereof” (Eisai Co., Ltd., priority 1998, dated 2002).

Molecules are shown by their SMILES.

Chain of PDE4D (Q08499 303-809 limits assumed): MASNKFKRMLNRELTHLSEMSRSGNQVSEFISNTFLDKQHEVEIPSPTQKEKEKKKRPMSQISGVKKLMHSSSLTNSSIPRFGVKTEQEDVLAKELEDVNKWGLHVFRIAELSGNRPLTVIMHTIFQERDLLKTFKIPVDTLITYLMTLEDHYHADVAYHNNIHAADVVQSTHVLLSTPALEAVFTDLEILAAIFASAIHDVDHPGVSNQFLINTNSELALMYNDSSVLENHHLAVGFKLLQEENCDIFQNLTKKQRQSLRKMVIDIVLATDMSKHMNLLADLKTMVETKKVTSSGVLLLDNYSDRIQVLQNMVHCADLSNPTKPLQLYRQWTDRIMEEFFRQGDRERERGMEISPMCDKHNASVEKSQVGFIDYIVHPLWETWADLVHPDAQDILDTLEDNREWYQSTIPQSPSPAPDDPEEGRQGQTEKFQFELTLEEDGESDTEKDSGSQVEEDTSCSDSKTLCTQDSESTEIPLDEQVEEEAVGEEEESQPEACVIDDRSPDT

By IC50 is commonly meant the concentration needed to halve the response being measured. Broadly, the melting point is the temperature of the solid-liquid transition. As to `CNc1nc(-c2cccc(NC(=O)c3ccc(OC)c(OC4CCCC4)c3)c2)c2cc(OC)c(OC)cc2n1` [Example 17, 4-[3-(3-Cyclopentyloxy-4-methoxybenzoylamino)phenyl]-6,7-dimethoxy-2-methylaminoquinazoline], the melting point lay in the range of 129 to 131 °C. The half-inhibitory concentration (IC50) on PDE4D worked out at 4.2 nM. For `CNc1nc(-c2cccc(NC(=O)c3ccc(O)cc3)c2)c2cc(OC)c(OC)cc2n1` [Example 21, 6,7-Dimethoxy-4-[3-(4-hydroxybenzoylamino)phenyl]-2-methylaminoquinazoline] the same measures were 178 to 180 °C and 2.2 nM.

For the compound `CNc1nc(-c2cccc(NC(=O)c3ccc(N(C)C)nc3)c2)c2cc(OC)c(OC)cc2n1` [Example 30, 6,7-Dimethoxy-4-[3-(6-dimethylaminonicotinoylamino)phenyl]-2-methylaminoquinazoline], the melting point lay within 149 to 151 °C. Besides, the IC50 on PDE4D worked out at 2.6 nM. Compound `CNc1nc(-c2cccc(NC(=O)c3ccc(N4CCCC4)nc3)c2)c2cc(OC)c(OC)cc2n1` [Example 31, 6,7-Dimethoxy-2-methylamino-4-[3-(6-pyrrolidinonicotinoylamino)phenyl]quinazoline] registered a melting point of 239 to 241 °C. For the same compound, at PDE4D, the half-maximal inhibitory concentration (IC50) came to 2.5 nM.

In turn, `CNc1nc(-c2cccc(NC(=O)c3ccnc(N4CCCC4)c3)c2)c2cc(OC)c(OC)cc2n1` [Example 34] showed a melting point of 135 to 137 °C. The IC50 on PDE4D turned out to be 3.1 nM.

`CNc1nc(-c2cccc(N3Cc4ccccc4C3)c2)c2cc(OC)c(OC)cc2n1` [Example 44, 6,7-Dimethoxy-4-[3-(2-isoindolynyl)phenyl]-2-methylaminoquinazoline] registered a melting point of 194 to 196 °C. Further, the concentration for half-maximal inhibition (IC50) at PDE4D turned out to be 2.5 nM. `CNc1nc(-c2cccc(N3Cc4ccccc4C3=O)c2)c2cc(OC)c(OC)cc2n1` [Example 45, 6,7-Dimethoxy-4-[3-(1-oxo-2-isoindolynyl)phenyl]-2-methylaminoquinazoline] had a melting point of 230 to 232 °C. In addition, at PDE4D, the half-inhibitory concentration (IC50) amounted to 0.72 nM.

`CNc1nc(-c2cccc(-c3cncc4ccccc34)c2)c2cc(OC)c(OC)cc2n1` [Example 51, 6,7-Dimethoxy-2-methylamino-4-[3-(4-isoquinolyl)phenyl]quinazoline]: the melting point fell in the range of 181 to 183 °C. Further, the concentration for half-maximal inhibition (IC50) on PDE4D turned out to be 3.2 nM.

`CNc1nc(-c2cccc(-c3ccc(SC)cc3)c2)c2cc(OC)c(OC)cc2n1` [Example 52, 6,7-Dimethoxy-2-methylamino-4-(4′-methylthio-3-biphenylyl)quinazoline] registered a melting point of 140 to 142 °C. For the same compound, the IC50 on PDE4D is 1.8 nM. The matching figures for `CNc1nc(-c2cccc(-c3ccc([S+](C)[O-])cc3)c2)c2cc(OC)c(OC)cc2n1` (stereo not drawn) [Example 53, 6,7-Dimethoxy-2-methylamino-4-(4′-methylsulfinyl-3-biphenylyl)quinazoline]: 153 to 155 °C and 0.63 nM. In turn, `CNc1nc(-c2cccc(-c3cccc(SC)c3)c2)c2cc(OC)c(OC)cc2n1` [Example 54, 6,7-Dimethoxy-2-methylamino-4-(3′-methylthio-3-biphenylyl)quinazoline] gave a melting point of 195 to 197 °C. In addition, the IC50 on PDE4D was 1.7 nM. Compound `CNc1nc(-c2cccc(-c3cccc(-c4ccccc4)c3)c2)c2cc(OC)c(OC)cc2n1` [Example 56, 6,7-Dimethoxy-2-methylamino-4-(3′-phenyl-3-biphenylyl)quinazoline] came in with a melting point of 193 to 195 °C. Also, the IC50 on PDE4D was 1.2 nM. The matching figures for `CNc1nc(-c2cccc(-c3cncc(SC)c3)c2)c2cc(OC)c(OC)cc2n1` [Example 58, 6,7-Dimethoxy-2-methylamino-4-[3-(5-methylthio-3-pyridyl)phenyl]quinazoline]: 184 to 186 °C and 2.8 nM. `CCOc1cc2nc(NC)nc(-c3cccc(-c4cnc5ccccc5c4)c3)c2cc1OCC` [Example 60, 6,7-Diethoxy-2-methylamino-4-[3-(3-quinolyl)phenyl]quinazoline] returned a melting point of 157 to 159 °C. For the same compound, the concentration for half-maximal inhibition (IC50) on PDE4D was 0.22 nM.

`CCOc1cc2nc(NC)nc(-c3cccc(-c4cncc(SC)c4)c3)c2cc1OCC` [Example 61, 6,7-Diethoxy-2-methylamino-4-[3-(methylthio-3-pyridyl)phenyl]quinazoline]: the melting point lay within 105 to 107 °C. Besides, the IC50 on PDE4D stood at 0.6 nM. Compound `CNc1nc(-c2cccc(-c3cncc(-c4ccccc4)c3)c2)c2cc(OC)c(OC)cc2n1` [Example 63, 6,7-Dimethoxy-2-methylamino-4-[3-(5-phenyl-3-pyridyl)phenyl]quinazoline] had a melting point of 200 to 202 °C. The IC50 on PDE4D worked out at 0.6 nM. Consider `CNc1nc(-c2cccc(CCc3ccccc3)c2)c2cc(OC)c(OC)cc2n1` [Example 66, 6,7-Dimethoxy-2-methylamino-4-[3-(2-phenylethyl)phenyl]quinazoline], for which the melting point lay in the range of 95 to 97 °C. `CNc1nc(-c2cccc(C#Cc3cccnc3)c2)c2cc(OC)c(OC)cc2n1` [Example 67, 6,7-Dimethoxy-2-methylamino-4-[3-[2-(3-pyridyl)ethynyl]phenyl]quinazoline] displayed a melting point of 103 to 105 °C. `CNc1ccc(C#Cc2cccc(-c3nc(NC)nc4cc(OC)c(OC)cc34)c2)cn1` [Example 68, 6,7-Dimethoxy-2-methylamino-4-[3-[2-(6-methylamino-3-pyridyl)ethynyl]phenyl]quinazoline]: the melting point fell in the range of 136 to 138 °C. Still for that read-out and setting: the value for `CNc1nc(-c2cccc(/C=C/c3ccccc3)c2)c2cc(OC)c(OC)cc2n1` [Example 69, 6,7-Dimethoxy-2-methylamino-4-[3-(2-phenylethenyl)phenyl]quinazoline] was 110 to 112 °C; that for `CNc1nc(-c2cccc(C(=O)Nc3ccccc3)c2)c2cc(OC)c(OC)cc2n1` [Example 70, 6,7-Dimethoxy-2-methylamino-4-(3-phenylcarbamoylphenyl)quinazoline] was 242 to 244 °C; that for `CNc1nc(-c2cccc(C(=O)Nc3cccnc3)c2)c2cc(OC)c(OC)cc2n1` [Example 71, 6,7-Dimethoxy-2-methylamino-4-[3-(3-pyridyl)carbamoylphenyl]quinazoline] was 238 to 240 °C. Still for that read-out and setting: the value for `CNc1nc(-c2cccc(OCc3ccccc3)c2)c2cc(OC)c(OC)cc2n1` [Example 72, 4-(3-Benzyloxyphenyl)-6,7-dimethoxy-2-methylaminoquinazoline] was 116 to 118 °C; that for `CNc1nc(-c2cccc(Oc3ccccc3)c2)c2cc(OC)c(OC)cc2n1` [Example 73, 6,7-Dimethoxy-2-methylamino-4-(3-phenoxylphenyl)quinazoline] was 157 to 159 °C; that for `CNc1nc(-c2ccc(-c3ccccc3)s2)c2cc(OC)c(OC)cc2n1` [Example 74, 6,7-Dimethoxy-2-methylamino-4-(5-phenyl-2-thienyl)quinazoline] was 201 to 203 °C. On the same count and under the same terms, the value for `CNc1nc(-c2cncc(-c3ccccc3)c2)c2cc(OC)c(OC)cc2n1` [Example 75, 6,7-Dimethoxy-2-methylamino-4-(5-phenyl-3-pyridyl)quinazoline] was 177 to 179 °C. `CNc1nc(-c2cncc(Br)c2)c2cc(OC)c(OC)cc2n1` [Example 76, 4-(5-Bromo-3-pyridyl)-6,7-dimethoxy-2-methylaminoquinazoline] registered a melting point of 228 to 230 °C. The compound `CNc1nc(-c2cncc(-c3ccc(SC)cc3)c2)c2cc(OC)c(OC)cc2n1` [Example 77, 6,7-Dimethoxy-2-methylamino-4-[5-(4-methylthiophenyl)-3-pyridyl]quinazoline] gave a melting point of 170 to 172 °C. On the same count and under the same terms, the value for `CNc1nc(-c2cncc(C#Cc3cccnc3)c2)c2cc(OC)c(OC)cc2n1` [Example 78, 6,7-Dimethoxy-2-methylamino-4-[5-[2-(3-pyridyl)ethynyl]-3-pyridyl]quinazoline] was 208 to 211 °C. With `CNc1ccc(C#Cc2cncc(-c3nc(NC)nc4cc(OC)c(OC)cc34)c2)cn1` [Example 79, 6,7-Dimethoxy-2-methylamino-4-[5-[2-(6-methylamino-3-pyridyl)ethynyl]-3-pyridyl]quinazoline], the melting point lay within 160 to 162 °C. In the case of `CNc1nc(-c2cccc(NC(=O)c3ccccc3)c2)c2cc(OCc3ccccc3)c(OC)cc2n1` [Example 81, 4-(3-Benzoylaminophenyl)-6-benzyloxy-7-methoxy-2-methylaminoquinazoline], the melting point lay within 204 to 206 °C. Still for that read-out and setting: to `CNc1nc(-c2cccc(NC(=O)c3ccccc3)c2)c2cc(O)c(OC)cc2n1` [Example 82, 4-(3-Benzoylaminophenyl)-6-hydroxy-7-methoxy-2-methylaminoquinazoline] belongs 145 to 147 °C.
